According to patent US20220211658A1, “METHODS FOR TREATING DISORDERS ASSOCIATED WITH SLEEP SPINDLE DEFICITS” (The Broad Institute, Inc., priority 2019, published 2022):

Key:
[1] = tested on: TRN neurons in WT mice; assay: Rebound burst firing in TRN neurons, acute brain slices from WT mice; format: cell-based; conditions: mean±s.e.m.
Excerpt: (§1) TRN neurons are known to display dual firing modes depending on their resting membrane potential: tonic and burst firing. While tonic firing refers to regular sodium spike trains at depolarized membrane potential, burst firing is characterized by repetitive “low-threshold” T type Ca^2+ transients (mediated by Cav3.3 channel) crowned by high-frequency sodium spikes when hyperpolarized. This burst firing mode may be critical for the generation and/or the maintenance of certain sleep rhythms in mice, including generation and maintenance of sleep spindle oscillations (Astori et al., 2011; Lee et al., 2014; Steriade et al., 1993; von Krosigk et al., 1993; Sherman et al., 2002).
Whether this characteristic TRN burst firing activity is affected by activation of the group II metabotropic glutamate receptors, including mGlu2 and mGlu3, was examined using the group II metabotropic glutamate receptor agonist, LY379268. As shown in FIG. 1A-1B, a significant increase in the repetitive rebound bursting after the addition of LY379268 compared to baseline levels in acute brain slices acquired from wild-type (WT) mice was observed. The rebound bursting in the baseline condition (control) was 1.87±0.291 (mean±s.e.m.), while after the bath application of LY379268 (1 μM) it was 2.87±0.435 (n=15 Wilcoxon signed rank test: p=0.002**). Such increase was not observed in WT slices treated with artificial cerebrospinal fluid (ACSF; n=14; baseline: 1.79±0.291; ACSF treated: 2.21±0.299; Wilcoxon signed rank test: p=0.1562). In addition, there was also a reduction in burst threshold (defined as the lowest membrane holding potential from which hyperpolarization induced rebound bursting can be observed) in WT mice after bath application of LY379268 (1 μM; FIG. 1C). The threshold for rebound bursting in the baseline condition (control) was −76.98 mV±1.79 (mean±s.e.m.), while after the bath application of LY379268 (1 μM) it was −78.48 mV±1.80 (n=10 Wilcoxon signed rank test: p=0.048*). Such changes in threshold were also not observed following ACSF treatment (n=10; baseline: −76.06 mV±1.71; ACSF treated: −76.32 mV±1.82; Wilcoxon signed rank test: p=0.3750).
Since early clinical trials used a prodrug form of another selective group II metabotropic glutamate receptor agonist, specifically […] (a methionine amide of LY-404039, also called pornagiumetad methionil or LY-2140023 monohydrate), the effect of LY-404039 on TRN neuron rebound bursting activity in WT mice was measured. […] The rebound bursting in control conditions was 2.71±0.42 (mean±s.e.m.), while after the bath application of LY404039 (1 μM) it was 4.57±0.64 (n=7 Wilcoxon signed rank test: p=0.0156).
Whether specific allosteric activation of the mGlu3 receptor can also enhance rebound bursting activity in TRN neurons was examined. […]

[2] = tested on: TRN neurons in RH mice; assay: Rebound burst firing in TRN neurons, slices from CACNA1I R1305H (RH) mice; format: cell-based; conditions: LY379268 1 μM bath application, mean±s.e.m., n=9, baseline 1.44±0.444, p=0.0039
Excerpt: as §1
Mice carrying a mutation in CACNA1I (R1305H; RH mice) show a significant deficit in rebound bursting of TRN neurons. The amino acid sequence of mouse CACNA1I protein is provided in SEQ ID NO: 2. Whether the group II metabotropic glutamate receptor agonist LY379268 could rescue such deficits in rebound bursting in RH mice was tested. Similar to in WT mice, LY379268 (1 μM) was also able to increase rebound bursting in RH mice (FIG. 2A-2B). The rebound bursting in baseline/control conditions was 1.44±0.444 (mean±s.e.m.), while after the bath application of LY379268 (1 μM) it was 3.78±1.08 (n=9 Wilcoxon signed rank test: p=0.0039**). […]

[3] = tested on: WT and CaV3.3 RH mice; assay: EEG recording of NREM sleep, delta power and sleep spindles after LY379268, analyzed by Luna; format: in vivo; conditions: 10 mg/kg i.p.
Method: (§2) There is a strong correlation between rebound bursting in TRN neurons and the rate of occurrence of sleep spindle oscillations during NREM or deep sleep state in mice (Wells et al., Ghoshal et al.) Since LY379268 increased rebound burst firing of TRN neurons in WT mice and rescued rebound bursting deficits in RH mice, it was examined whether activation of mGlu3 could rescue the sleep spindle deficits observed in the RH mice. LY379268 was administered intraperitoneally (i.p.; 10 mg/kg) while simultaneously recording the brain activity using electroencephalography (EEG) in WT and CaV3.3 RH mice. EEG was recorded using surface electrodes chronically implanted near the frontal and parietal lobes of the mice (Pinnacle Systems). Mice were habituated in the EEG recording arena for 48 hrs and then injected with vehicle (0.9% saline) and recorded for another 24 hours. Then, 10 mg/kg LY379268 formulated in 0.9% saline was injected, and their EEG activity was recorded for another 24 hours, and analyzed by Luna (zzz.bwh.harvard.edu, Ghoshal et al., 2020).

[4] = tested on: WT mice; assay: EEG recording of NREM sleep and sleep spindle density after Mavalon-63, decision tree algorithm; format: in vivo; conditions: 10 mg/kg
Method: as §2
Whether allosteric activation of mGlu3 receptor using the Mavalon-63 PAM would also lead to an increase in sleep spindle density was examined. The experimental design is shown in FIG. 6A, and mice were similarly recorded as in Example 4. […]

[5] = both WT and RH mice, 12 hr light cycle

N[C@@]1(C(=O)O)CO[C@H]2[C@H](C(=O)O)[C@H]21 (stereo in doubt) [LY379268, (1R,4R,5S, 6R)-4-Amino-2-oxabicyclo[3.1.0]hexane-4,6-dicarboxylic acid]
threshold for rebound bursting after bath application ([1]; WT mice, LY379268 1 μM bath application, n=10, baseline −76.98 mV±1.79, p=0.048): −78.48 mV | rebound bursting (number of rebound bursts) after bath application ([1]; WT mice, LY379268 1 μM bath application, n=15, baseline 1.87±0.291, p=0.002): 2.87±0.435 | rebound bursting (number of rebound bursts) after bath application [2]: 3.78±1.08 | NREM specific sleep spindle deficits in RH mice ([3]; RH mice, to wildtype levels, WT-baseline vs RH-LY379268 p>0.05): rescued | sleep spindle density, entire NREM period ([3]; both WT and RH mice, 12-hr light cycle, especially parietal cortex, Fc=13 Hz and 15 Hz): modest but significant increase | relative delta power [3, 5]: concurrent increase | time spent in NREM sleep [3, 5]: increased | increase in sleep spindles, latter half (last 6 hours) of the light cycle ([3]; compared with the entire 12-hr light cycle, Fc=13 Hz and 15 Hz): more robust

N[C@@]1(C(=O)O)CS(=O)(=O)[C@H]2[C@H](C(=O)O)[C@H]21 [LY404039, (1R,4S,5S,6S)-4-Amino-2-thiabicyclo [3.1.0]hexane-4,6-dicaiboxylic acid 2,2-dioxide]
rebound bursting (number of rebound bursts) after bath application ([1]; WT mice, LY404039 1 μM bath application, n=7, control 2.71±0.42, p=0.0156): 4.57±0.64

CN1C(=O)c2cccn2-c2cc(-c3ccc(F)cn3)ccc2C12CC2 [Mavalon 63, 5-Methyl-9-(5-fluoropyridin-2-yl)-spiro[benzo [f]pyrrolo[1.2-a][1,4]diazepine-6,1′-cyclopropan]-4(5H)-one]
rebound bursting (number of rebound bursts) after bath application ([1]; WT TRN neurons, Mavalon 63 500 nM bath application, n=12, baseline 3.2±0.77, p=0.0020): 4.9±0.91 | time spent in NREM ([4]; 12-hr light cycle): did not increase | parietal sleep spindle density during NREM ([4]; averaged across all center frequencies 9-15 Hz, 12 hour light cycle): appreciable and significant (p<0.05; paired t-test) increase
